10 molecules from patent EP4553077A1 (Kinoteck Therapeutics Co., Ltd, priority 2022, dated 2024) can be followed below.

pIC50: −log10 of the molar value.

In one data set the target is CYP2D6 (Homo sapiens, UniProt P10635). Nature of the data set: Cytochrome P450 inhibition in human liver microsomes. Background: Liver microsomes are a subcellular fraction often used to study metabolism.
The next data set concerns the target Ba/F3-TEL-FGFR2 (Homo sapiens, UniProt P21802+P41212). Nature of the data set: Cell viability (proliferation inhibition) of Ba/F3 cells, CellTiter Glo. To be noted: read-out: Ba/F3 cell FGFR2 (IC50 nM), 72 h. On the technique in general: Cellular ATP, detected with luciferase, serves as a proxy for viable cell number.
The target of another data set is CYP3A4 (Homo sapiens, UniProt P08684). The data set is described as follows: Cytochrome P450 inhibition in human liver microsomes.
CYP3A4, sequence (P08684 whole entry): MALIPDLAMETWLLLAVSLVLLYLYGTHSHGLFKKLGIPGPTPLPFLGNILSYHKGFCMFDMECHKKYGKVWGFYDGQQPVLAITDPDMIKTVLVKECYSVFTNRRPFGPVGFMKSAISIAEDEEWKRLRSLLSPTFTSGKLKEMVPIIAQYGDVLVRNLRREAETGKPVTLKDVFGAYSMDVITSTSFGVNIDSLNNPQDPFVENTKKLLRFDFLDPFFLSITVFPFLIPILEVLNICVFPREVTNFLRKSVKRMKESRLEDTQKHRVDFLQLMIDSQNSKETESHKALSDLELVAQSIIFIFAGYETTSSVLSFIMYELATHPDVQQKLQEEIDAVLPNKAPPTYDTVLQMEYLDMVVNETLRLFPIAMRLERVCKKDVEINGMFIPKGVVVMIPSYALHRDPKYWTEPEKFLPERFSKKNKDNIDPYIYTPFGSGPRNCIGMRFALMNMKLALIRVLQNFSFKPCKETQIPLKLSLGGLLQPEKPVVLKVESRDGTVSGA
The next data set deals with Ba/F3-TEL-FGFR1 (Homo sapiens, UniProt P11362+P41212). The data set is described as follows: Cell viability (proliferation inhibition) of Ba/F3 cells, CellTiter Glo. To be noted: read-out: Ba/F3 cell FGFR1 (IC50 nM), 72 h.
Ba/F3-TEL-FGFR1, sequence (P11362 478-767 limits assumed, one chain of several): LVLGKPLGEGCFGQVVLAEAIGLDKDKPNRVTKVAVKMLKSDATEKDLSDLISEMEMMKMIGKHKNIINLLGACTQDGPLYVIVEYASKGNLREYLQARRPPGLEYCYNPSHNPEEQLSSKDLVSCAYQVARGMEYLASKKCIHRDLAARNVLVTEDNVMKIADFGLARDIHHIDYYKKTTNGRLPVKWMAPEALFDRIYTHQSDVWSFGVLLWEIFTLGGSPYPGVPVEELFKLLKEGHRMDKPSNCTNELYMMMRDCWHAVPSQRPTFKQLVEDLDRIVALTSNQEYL
Another data set deals with A204 cells. Nature of the data set: Proliferation inhibition, CCK-8 colorimetric method. The format is cell-based. To be noted: 72 h. How it is done:
(§1) CCK-8 (Bimake/B34304) colorimetric method was used to detect the in vitro proliferation inhibitory effect of compounds on suspended or adherent cells in this experiment. The specific experimental steps were as follows: • 1) Cell plating: SNU16 and A204 tumor cells (cells from Shanghai Institute of Organic Chemistry, Chinese Academy of Sciences) in the logarithmic growth phase were digested and centrifuged for trypan blue counting, and the cells were seeded into a transparent 96 well plate at a density of 4000 cells/100 µ 1/well. […] The test compound and control compound stock solution were diluted with the corresponding culture medium required for cell culture (with or without solvent DMSO) to obtain a series of working solutions, with concentrations of twice the final concentration. The solvent DMSO contents in each concentration group were consistent with that of the solvent control group. The final concentration of A204 cells started at 10 µM and was diluted twice.
(§2) Calculation of cell survival rate: Cell survival rate (%)=[(As-Ac)/(Ab-Ac)] × 100%] (As: experimental well; Ab: Solvent control well; Ac: Blank well).
On the technique in general: Tetrazolium assays rely on reduction of a dye to a coloured formazan, in cell work by metabolically active cells.

Another data set has as its system SNU16 cells. Described as above. The format is cell-based. As for the experimental part:
as §1, §2

The nature of data set [1]: Rat liver cells metabolic stability. To be noted: rat liver cells 0.5 × 10^6 cells/mL. The format is in vitro ADME. How it is done:
Test compound and control drug verapamil powder were prepared into […] stock solution using DMSO, and they were diluted with 50% acetonitrile/50% water to 100 µM working solution before use.
• 1) 49.5 mL Williams E Medium and 0.5 mL glutaMAX were mixed as incubation medium. The liver cell resuscitation solution and incubation solution were preheated in a 37 °C water bath for at least 15 min before use. • 2) A tube of liver cells stored at ultra-low temperature was taken and ensured that they remain in a low-temperature frozen state before resuscitation. The liver cells were placed quickly in a 37 °C water bath and shaken gently until all ice crystals were dispersed. • 3) The contents of the liver cells tubes were poured into a centrifuge tube containing 50 mL of resuscitation medium, and they were centrifuged at 100 g for 10 min. After centrifugation, the resuscitation medium was aspirated, and sufficient incubation medium was added to obtain a cell suspension with a cell density of approximately 1.0 × 10^6 cells/mL. • 4) AO/PI staining was used to count liver cells and determine viable cell density, the survival rate of liver cells must be greater than 75%. The liver cell suspension was diluted with incubation medium to a viable cell density of 0.5 × 10^6 cells/mL.
• 1) 198 µL live cell suspension was transferred to a 96 well deep well plate, and the deep well plate was placed on a vortex and preheat in the incubator for 10 min. • 2) 2 µL 100 µM test compound or positive control compound was added to each well for reaction initiation, and the deep well plate was placed back on the incubator vortex. • 3) The incubation plate was placed into the incubator for incubation. 25 µL suspension was taken at 0.5, 15, 30, 60, 90, and 120 min, and 6-fold (150 µL) acetonitrile containing internal standard quencher (100 nM alprazolam, 200 nM caffeine, and 100 nM toluenesulfonylbutamide) was added to a new 96 well plate to terminate the reaction. The plate was vortexed for 5 min and centrifuged at 3220 rpm and 4 °C for 45 min to precipitate the protein. 100 µL of supernatant was transferred to the sample plate, and 100 µL pure water was added and mixed well for UPLC-MS/MS analysis. All incubation systems were conducted in a dual parallel manner.
All data was calculated using Microsoft Excel software. Peak area was detected by extracting ion chromatogram. In vitro half-life (T1/2) and in vitro clearance rate (in µL/min/10^6 cells) of the parent drug were detected by linearly fitting of the natural logarithm of the […] percentage of the parent drug versus time. Table 6 Results of rat liver cell stability test

Another data set deals with Ba/F3-TEL-FGFR3 (Homo sapiens, UniProt P22607+P41212). The data set is described as follows: Cell viability (proliferation inhibition) of Ba/F3 cells, CellTiter Glo. To be noted: read-out: Ba/F3 cell FGFR3 (IC50 nM), 72 h.
Ba/F3-TEL-FGFR3, sequence (P22607 472-761 limits assumed, one chain of several): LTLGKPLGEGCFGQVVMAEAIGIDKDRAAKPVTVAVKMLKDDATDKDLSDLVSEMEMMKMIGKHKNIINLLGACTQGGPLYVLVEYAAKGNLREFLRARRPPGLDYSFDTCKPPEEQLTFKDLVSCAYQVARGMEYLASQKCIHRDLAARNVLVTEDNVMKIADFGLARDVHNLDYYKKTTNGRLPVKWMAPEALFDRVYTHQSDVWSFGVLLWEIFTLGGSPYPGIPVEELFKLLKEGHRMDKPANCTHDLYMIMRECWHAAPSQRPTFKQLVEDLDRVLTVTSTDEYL
The nature of data set [2]: Pharmacokinetic test in rats. The data set is classed as in vivo, male SD rats. To be noted: rat, plasma, oral gavage administration, 10 mg/kg. How it is done:
Rat pharmacokinetic experiments were performed using male SD rats, 180-220g, provided by Beijing Vital River Laboratory Animal Technology Co., Ltd. 3 rats that were fasted overnight were taken, and administered orally by gavage (10 mg/kg). Blood samples were collected before administration, as well as 5, 15, 30 min and 1, 2, 4, 6, 8, 24 h after administration; another 3 rats were taken and administered intravenously (1 mg/kg), blood samples were collected before administration, as well as 5, 15, 30 min and 1, 2, 4, 6, 8, 24 h after administration. Blood sample was centrifuged at 6800g, 2-8 °C for 6 min, and plasma was collected, and stored at -80 °C. Plasma of each time point was taken, 10 times the amount of 50% methanol acetonitrile solution containing internal standard was added, and mixed by vortex for 5 min, centrifuged at 18000 rpm at 4 °C for 10 min, and the supernatant was taken directly for LC-MS/MS analysis. The main pharmacokinetic parameters were analyzed using WinNonlin8.2 software for non compartmental model analysis. Table 3: pharmacokinetic test in rats results of test compounds

CYP2D6, sequence (P10635 whole entry): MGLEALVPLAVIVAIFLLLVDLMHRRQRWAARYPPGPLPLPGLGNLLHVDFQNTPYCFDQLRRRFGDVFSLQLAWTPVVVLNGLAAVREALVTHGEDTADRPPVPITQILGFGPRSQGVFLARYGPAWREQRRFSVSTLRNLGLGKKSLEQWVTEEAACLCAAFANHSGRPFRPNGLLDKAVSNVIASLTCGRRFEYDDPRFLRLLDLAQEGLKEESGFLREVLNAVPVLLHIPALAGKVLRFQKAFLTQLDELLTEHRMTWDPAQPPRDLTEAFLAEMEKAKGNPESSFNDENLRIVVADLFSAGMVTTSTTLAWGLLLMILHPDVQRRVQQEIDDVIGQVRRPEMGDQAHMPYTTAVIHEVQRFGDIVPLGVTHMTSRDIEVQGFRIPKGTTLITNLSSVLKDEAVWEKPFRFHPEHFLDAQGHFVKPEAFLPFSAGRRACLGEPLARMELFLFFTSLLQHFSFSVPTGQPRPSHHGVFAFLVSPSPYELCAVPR
Ba/F3-TEL-FGFR2, sequence (P21802 481-770 limits assumed, one chain of several): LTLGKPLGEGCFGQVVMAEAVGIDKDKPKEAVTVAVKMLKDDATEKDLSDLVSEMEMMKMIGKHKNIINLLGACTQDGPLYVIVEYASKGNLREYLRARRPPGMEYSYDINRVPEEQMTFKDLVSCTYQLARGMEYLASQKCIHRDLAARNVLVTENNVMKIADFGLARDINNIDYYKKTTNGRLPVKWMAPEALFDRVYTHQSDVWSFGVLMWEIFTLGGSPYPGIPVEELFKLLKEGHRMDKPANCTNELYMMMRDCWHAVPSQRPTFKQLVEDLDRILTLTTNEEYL
Experimental for CYP2D6: (§3) Preparation of positive control inhibitor and compound working solution: 16 µL inhibitor stock solution or compound stock solution for each CYP subtype were taken and added to 24 µL DMSO. Then, they were diluted gradually three times with diluent to obtain different concentrations of test sample/positive control inhibitor working solution (7 concentrations each except for blank)
(§4) Preparation of liver microsomal working solution: 300 µL human liver microsomes (20.0 mg/mL) was taken and added to 29700 µL PBS and mixed well, and the concentration of the prepared human liver microsomal working solution was 0.200 mg/mL.
(§5) Preparation of 4 x NADPH working solution: A certain weight of NADPH tetrasodium salt was weighted and dissolved to a suitable volume of PBS to obtain NADPH working solution, with a concentration of 8.00 mM.
(§6) Preparation of test sample group working solution: The human liver microsomal working solution was divided into 96 well plates at 796 µL per well, and then 4 µL test sample working solution was added.
(§7) Preparation of positive control group working solution: The human liver microsomal working solution was divided into 96 well plates at 199 µL per well, and then 1 µL positive control inhibitor working solution was added.
(§8) Blank solvent working solution preparation: The human liver microsomal working solution was divided into 96 well plates at 199 µL per well, and then 1 µL DMSO was added.
(§9) (a) 30 µL test sample/positive control inhibitor working solution or 30 µL blank solvent working solution per well were transferred into a 96 well plate, and 15 µL substrate working solution of different enzyme subtypes transferred into each well, and mixed evenly. (b) The above incubation plates and 4 x NADPH working solution were preheated at 37 °C for 5 min. (c) 15 µL preheated 4 × NADPH working solution per well was transferred into the incubation plate, and the reaction initiated, and continued to be incubated at 37 °C. The incubation time is as follows:
(§10) (d) After the reaction time was reached, 180 µL termination solution was added to terminate the reaction. […] (f) After centrifugation, 80 µL supernatant was taken and added to 120 µL ultrapure water, and after it was mixed evenly, LC-MS/MS was used to analyze the metabolites of the probe substrate.
Experimental for CYP3A4: as §3, §4, §5, §6, §7, §8, §9, §10

The term pIC50 denotes the IC50 on a negative log10 scale, so that one unit is a factor of ten. For the molecule `C=C(C)C(=O)Nc1ccc(-c2c(-c3ccc(N=S(=O)(CC)CC)c(F)c3)c3c(N)ncnc3n2C)cc1` [Compound 9, N-(4-(4-amino-5-(4-(diethyl (oxo) 1 λ^6-sulfanylidene) -3-fluorophenyl) -7-methyl 7H-pyrrolo [2,3-d]pyrimidin-6-yl) - phenyl) methacrylamide], the pIC50 was 4.61 against CYP2D6 and 4.87 on CYP3A4. The IC50 on Ba/F3-TEL-FGFR2 was determined as 14.9 nM.
On to `C=C(C)C(=O)Nc1ccc(-c2c(-c3ccc(N=S4(=O)CCCC4)c(F)c3)c3c(N)ncnc3n2C)c(F)c1` [Compound 23, N-(4-(4-amino-5-(3-fluoro-4-((1-oxotetrahydro-1 λ^6-thiophene-1-ylidene)amino)phenyl) -7-methyl-7H-pyrrolo [2,3-d]pyrimidin-6-yl) -3-fluorophenyl) methacrylamide], for which the IC50 at Ba/F3-TEL-FGFR1 amounted to 568 nM; in the data set on A204 cells (Homo sapiens), 618 nM; in the data set with SNU16 cells (Homo sapiens, SNU-16, 72 h), 2.4 nM; at Ba/F3-TEL-FGFR2 it was 0.7 nM. In addition, in data set [1] (60 min), the “Remaining percentage of compound after 60 min of incubation (%)” value was determined as 24.45%. In data set [1] (rat liver cells (cryopreserved hepatocytes in suspension), read-out: in vitro CLint (µL/min/10^6 cells)), the hepatocyte CLint at 1 µM worked out at 48.4 µL/min/1e6 cells. Also, the half-life at 1 µM in [1] (rat liver cells (cryopreserved hepatocytes in suspension), read-out: in vitro t1/2) turned out to be 28.6 min.
Regarding `C=C(C)C(=O)Nc1ccc(-c2c(-c3ccc(N=S4(=O)CCCC4)c(F)c3)c3c(N)ncnc3n2C)c(C#N)c1` [Compound 26, N-(4-(4-amino-5-(3-fluoro-4-((1-oxotetrahydro-1 λ^6-thiophene-1-ylidene)amino)phenyl) -7-methyl-7H-pyrrolo [2,3-d]pyrimidin-6-yl) -3-cyanophenyl) methacrylamide], the IC50 with A204 cells (Homo sapiens) was 285 nM; with SNU16 cells (Homo sapiens, SNU-16, 72 h), 3.36 nM; at Ba/F3-TEL-FGFR3 it was 110 nM; on Ba/F3-TEL-FGFR2, 4.5 nM.
Broadly, the AUC(0-t) is the area under the concentration-time curve up to a stated or last time point. Read a high AUC(0-t) as high exposure. Broadly, the Cmax is the highest concentration seen after dosing. Usually Tmax stands for the time from dosing to the highest level. `C=C(C)C(=O)Nc1ccc(-c2c(-c3ccc(N=S4(=O)CCCC4)c(F)c3)c3c(N)ncnc3n2C)cc1` [Compound 33, N-(4-(4-amino-5-(3-fluoro-4-((1-oxotetrahydro-1 λ^6-thiophene-1-ylidene)amino)phenyl) -7-methyl-7H-pyrrolo [2,3-d]pyrimidin-6-yl)phenyl) methacrylamide]: the IC50 at Ba/F3-TEL-FGFR1 stood at 2310 nM; at Ba/F3-TEL-FGFR3 it was 1290 nM; on Ba/F3-TEL-FGFR2, 11.2 nM. For the same molecule, the pIC50 is 5.02 against CYP2D6 and 4.72 at CYP3A4. In [2] (male, SD), this molecule had an AUC(0-t) of 778 ng·h/mL. Besides, the concentration in [2] (male, SD) peaked (Cmax) at 306 ng/mL. Further, the Tmax in data set [2] (male, SD) was 25.2 min. The molecule also showed a half-life in data set [2] (male, SD) of 79.2 min.
As to `C=C(C)C(=O)Nc1ccc(-c2c(-c3ccc(N=S(=O)(N(C)C)C(F)(F)F)c(F)c3)c3c(N)ncnc3n2C)cc1` (centres unmarked) [Compound 48], the IC50 on Ba/F3-TEL-FGFR1 turned out to be 625 nM. Also, on Ba/F3-TEL-FGFR3, the IC50 was 577 nM. In data set [2], the AUC(0-t) came to 883 ng·h/mL, the Cmax is 212 ng/mL, the Tmax amounted to 49.8 min and the half-life was 206 min. Besides, at Ba/F3-TEL-FGFR2, the IC50 turned out to be 0.9 nM.
For `C=C(C)C(=O)Nc1ccc(-c2c(-c3ccc(N=S4(=O)CCC4)c(F)c3)c3c(N)ncnc3n2C)cc1` [Compound 56], the pIC50 on CYP2D6 was 5.26; against CYP3A4, 4.88. Besides, on Ba/F3-TEL-FGFR2, the IC50 is 12.6 nM.
For `C=C(C)C(=O)Nc1ccc(-c2c(-c3ccc(N=S4(=O)CCCC4)c(Cl)c3)c3c(N)ncnc3n2C)c(F)c1` [Compound 88, N-(4-(4-amino-5-(3-chloro-4-((1-oxidetetrahydro-1 λ^6-thiophene-1-ylidene)amino)phenyl) -7-methyl-7H-pyrrolo [2,3-d]pyrimidin-6-yl) -3-fluorophenyl) methacrylamide], the IC50 was 561 nM at Ba/F3-TEL-FGFR1, 216 nM at Ba/F3-TEL-FGFR3 and 1.5 nM on Ba/F3-TEL-FGFR2.
For `[2H]C([2H])([2H])n1c(-c2ccc(NC(=O)C(=C)C)cc2F)c(-c2ccc(N=S3(=O)CCCC3)c(F)c2)c2c(N)ncnc21` [Compound 94], in that order: 625 nM, 205 nM and 1.1 nM.
For `C=C(C)C(=O)Nc1ccc(-c2c(-c3ccc(N=S(=O)(CC)CC)c(F)c3)c3c(N)ncnc3n2C)c(F)c1` [Compound 100], in that order: 823 nM, 414 nM and 1.9 nM.
Consider “N-(4-(4-amino-7-methyl-5-(4-(1-oxotetrahydro-2H-1λ^6-thiopyran-1- imino) phenyl) -7H-pyrrolo [2,3-d] pyrimidin-6-yl) -3-fluorophenyl) methacrylamide [Compound 1]”, for which the IC50 at Ba/F3-TEL-FGFR1 is 656 nM; in the data set with A204 cells it was 1310 nM; in the data set on SNU16 cells (72 h) it was 5.57 nM; on Ba/F3-TEL-FGFR3, 869 nM; at Ba/F3-TEL-FGFR2 it was 2.3 nM.
